Data from patent US9657006B2, “Macrocyclic factor VIIa inhibitors” (BRISTOL-MYERS SQUIBB COMPANY, priority 2013, dated 2017).
Structures can show the parent of a compound that is named as a salt.

Target: T1, FVIIa (Homo sapiens, UniProt P08709)
T1 construct: with about 1% of the total amount in the proteolytically active form factor VIIa
Test: FVIIa Ki (25° C.): FVIIa peptide substrate assay
Format: biochemical
Settings: S2288 peptide substrate, full-length human TF
Procedure: The effectiveness of compounds of the present invention as inhibitors of the coagulation Factors, VIIa, IXa, Xa, XIa, XIIa, plasma kallikrein or thrombin, tissue kallikrein and activated protein C, can be determined using a relevant purified serine protease, respectively, and an appropriate synthetic substrate. The rate of hydrolysis of the chromogenic or fluorogenic substrate by the relevant serine protease was measured both in the absence and presence of compounds of the present invention. […] A decrease in the rate of absorbance or fluorescence change in the presence of inhibitor is indicative of enzyme inhibition. Such methods are known to one skilled in the art. The results of this assay are expressed as the inhibitory constant, Ki.
a. FVIIa Ki (25° C.): FVIIa Peptide Substrate Assay
S2288 (range of concentrations) and FVIIa inhibitor were incubated for 15 minutes (min) at 25° C. Reactions were initiated by addition of a solution of full-length human TF (6 nM), FVIIa (0.75 nM), and PCPS (25 μM). FVIIa hydrolyses S2288, which was monitored for up to 60 min at 405 nm. Steady-state reaction velocity data (vs) was globally fit to Equation 1 for competitive inhibition. vs=Vmax[S]/([S]+Km(1+[I]/Ki)) (Eq. 1) where Vmax is maximum velocity, [S] is substrate concentration, Km is the Michaelis-Menten constant, [I] is the inhibitor concentration, and Ki is the inhibitor dissociation constant (GraFit, version 5, Erithacus Software Ltd, West Sussex, UK).

T1 sequence (P08709 213-466 limits assumed): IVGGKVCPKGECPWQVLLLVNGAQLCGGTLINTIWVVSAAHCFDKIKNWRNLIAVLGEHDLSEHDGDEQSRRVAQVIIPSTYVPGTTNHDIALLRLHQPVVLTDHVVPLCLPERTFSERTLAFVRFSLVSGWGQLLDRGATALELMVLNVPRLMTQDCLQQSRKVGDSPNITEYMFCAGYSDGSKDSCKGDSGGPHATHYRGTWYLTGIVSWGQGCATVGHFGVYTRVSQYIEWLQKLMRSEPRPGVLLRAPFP
T1 sequence (P08709 61-212 limits assumed): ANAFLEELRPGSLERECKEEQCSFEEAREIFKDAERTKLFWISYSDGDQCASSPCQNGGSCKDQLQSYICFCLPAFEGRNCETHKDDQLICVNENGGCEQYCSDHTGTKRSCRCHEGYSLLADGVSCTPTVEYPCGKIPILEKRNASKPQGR
T1 sequence (P13726 33-295 partner): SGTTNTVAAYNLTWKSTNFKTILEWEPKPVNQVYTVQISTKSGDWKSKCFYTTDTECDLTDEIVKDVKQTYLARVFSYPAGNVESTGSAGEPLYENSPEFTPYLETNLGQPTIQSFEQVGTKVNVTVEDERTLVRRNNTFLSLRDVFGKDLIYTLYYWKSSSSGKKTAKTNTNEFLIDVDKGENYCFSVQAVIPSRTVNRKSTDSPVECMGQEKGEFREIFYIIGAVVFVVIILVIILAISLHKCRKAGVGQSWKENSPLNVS

| Compound | Ki [nM] |
| --- | --- |
| 4-((R)-16-Difluoromethoxy-17-fluoro-3,12-dioxo-2,13-diaza-tricyclo[13.3.1.1^6,10]icosa-1(19),6,8,10(20),15,17-hexaen-11-ylamino)-benzamidine trifluoroacetic acid salt [Example 37] | 11 |
| COc1ccc2cc1[C@H](C)CN(C)C(=O)Nc1ccc(S(=O)(=O)C3CC3)c(c1)CN(C)C(=O)C2Nc1ccc2c(N)nccc2c1 (mixture of isomers) [Example 12, (S)-5-(1-Amino-isoquinolin-6-ylamino)-19-cyclopropanesulfonyl-9-methoxy-3,11,13-trimethyl-3,13,15-triaza-tricyclo[14.3.1.1^6,10]henicosa-1(20),6(21),7,9,16,18-hexaene-4,14-dione trifluoroacetic acid salt] | 47 |
| CN1Cc2cc(ccc2S(=O)(=O)C2CC2)NC(=O)OCc2cccc(c2)[C@@H](Nc2ccc3c(N)nccc3c2)C1=O (single isomer, unassigned) [Example 3] | 560 |
| CN1Cc2cc(ccc2S(=O)(=O)C2CC2)NC(=O)OCC(C)(C)c2cccc(c2)[C@@H](Nc2ccc3c(N)nccc3c2)C1=O (single isomer, unassigned) [Example 4] | 1480 |
| COc1ccc2cc1CCOC(=O)Nc1ccc(S(=O)(=O)C3CC3)c(c1)CN(C)C(=O)[C@@H]2Nc1ccc2c(N)nccc2c1 (single isomer, unassigned) [Example 6] | 44 |
| C[C@@H]1COC(=O)Nc2ccc(S(=O)(=O)C3CC3)c(c2)CN(C)C(=O)[C@H](Nc2ccc3c(N)nccc3c2)c2cccc1c2 (single isomer, unassigned) [Example 7] | 115 |
| CN1Cc2cc(ccc2S(=O)(=O)C2CC2)NC(=O)CCc2cccc(c2)[C@@H](Nc2ccc3c(N)nccc3c2)C1=O (single isomer, unassigned) [Example 8] | 5 |
| COc1ccc2cc1CCC(=O)Nc1ccc(S(=O)(=O)C3CC3)c(c1)CN(C)C(=O)[C@@H]2Nc1ccc2c(N)ncc(F)c2c1 (single isomer, unassigned) [Example 11] | 5 |
| CN1Cc2cc(ccc2S(=O)(=O)C2CC2)NC(=O)CCc2cc(ccc2F)[C@@H](Nc2ccc3c(N)ncc(F)c3c2)C1=O (single isomer, unassigned) [Example 14] | 5 |
| COc1cc2cc(c1)[C@@H](Nc1ccc3c(N)ncc(F)c3c1)C(=O)N(C)Cc1cc(ccc1S(=O)(=O)C1CC1)NC(=O)CC2 (single isomer, unassigned) [Example 15] | 6 |
| CN1Cc2cc(ccc2S(=O)(=O)C2CC2)NC(=O)CCc2cccc(c2)[C@@H](Nc2ccc3c(N)ncc(F)c3c2)C1=O (single isomer, unassigned) [Example 17] | 7 |
| CN1Cc2cc(ccc2S(=O)(=O)C2CC2)NC(=O)CCc2cc(ccc2OCc2ccccc2)[C@@H](Nc2ccc3c(N)ncc(F)c3c2)C1=O (single isomer, unassigned) [Example 18] | 6 |
| CN1CCc2cccc(c2)[C@@H](Nc2ccc3c(N)ncc(F)c3c2)C(=O)N(C)Cc2cc(ccc2S(=O)(=O)C2CC2)NC1=O (single isomer, unassigned) [Example 28] | 14 |
| CN1Cc2cc(ccc2S(=O)(=O)C2CC2)NC(=O)N(Cc2ccccc2)CCc2cccc(c2)[C@@H](Nc2ccc3c(N)ncc(F)c3c2)C1=O (single isomer, unassigned) [Example 29] | 80 |
| COc1c(F)cc2cc1CCC(=O)Nc1ccc(S(=O)(=O)C3CC3)c(c1)CN(C)C(=O)[C@@H]2Nc1ccc2c(N)ncc(F)c2c1 (single isomer, unassigned) [Example 30] | 10 |
| COc1ccc2cc1[C@@H](C)CN(C)C(=O)Nc1ccc(S(=O)(=O)C3CC3)c(c1)CN(C)C(=O)[C@@H]2Nc1ccc2c(N)ncc(F)c2c1 (single isomer, unassigned) [Example 31] | 5 |

| Compound | Ki [nM] |
| --- | --- |
| C[C@H]1CC(=O)Nc2ccc(S(=O)(=O)C3CC3)c(c2)CN(C)C(=O)[C@H](Nc2ccc3c(N)ncc(F)c3c2)c2ccc(OCC(F)F)c1c2 (single isomer, unassigned) [Example 32, trifluoroacetic acid salt] | 31 |
| COc1ccc2cc1CCC(=O)Nc1ccc(S(=O)(=O)C(F)(F)F)c(c1)CN(C)C(=O)[C@@H]2Nc1ccc2c(N)nccc2c1 (single isomer, unassigned) [Example 34, trifluoroacetic acid salt] | 5 |
| CN1CCc2cccc(c2)[C@@H](Nc2ccc(C(=N)N)cc2)C(=O)N(C)Cc2cc(cc(F)c2OC(F)F)NC1=O (single isomer, unassigned) [Example 35, trifluoroacetic acid salt] | 6 |
| C[C@@H]1CC(=O)Nc2ccc(S(=O)(=O)C3CC3)c(c2)CN(C)C(=O)[C@H](Nc2ccc3c(N)ncc(F)c3c2)c2ccc(OCC(F)F)c1c2 (single isomer, unassigned) [Example 38, trifluoroacetic acid salt] | 5 |
| CN1CCc2cc(ccc2OCC(F)F)[C@@H](Nc2ccc3c(N)ncc(F)c3c2)C(=O)N(C)Cc2cc(ccc2S(=O)(=O)C(F)F)NC1=O (single isomer, unassigned) [Example 39, trifluoroacetic acid salt] | 120 |
| CN1Cc2cc(cc(F)c2OCC(F)F)NC(=O)CCc2cc(ccc2OCC(F)F)[C@@H](Nc2ccc(C(=N)N)cc2)C1=O (single isomer, unassigned) [Example 40, trifluoroacetic acid salt] | 5 |
| CN1Cc2cc(ccc2S(=O)(=O)C2CC2)NC(=O)NCCc2cccc(c2)[C@@H](Nc2ccc3c(N)ncc(F)c3c2)C1=O (single isomer, unassigned) [Example 41, trifluoroacetic acid salt] | 17 |
| CN1Cc2cc(cc(F)c2OC(CF)CF)NC(=O)CCc2cc(ccc2OCC(F)F)[C@@H](Nc2ccc(C(=N)N)cc2)C1=O (single isomer, unassigned) [Example 42, trifluoroacetic acid salt] | 5 |
| C[C@@H]1CC(=O)Nc2ccc(OC(F)F)c(c2)CN(C)C(=O)[C@H](Nc2ccc(C(=N)N)cc2)c2ccc(OCC(F)F)c1c2 (single isomer, unassigned) [Example 43, trifluoroacetic acid salt] | 5 |
| CN1Cc2cc(ccc2S(=O)(=O)C2CC2)NC(=O)OCCc2cccc(c2)[C@@H](Nc2ccc3c(N)nccc3c2)C1=O [Example 1, (R)-5-(1-Amino-isoquinolin-6-ylamino)-19-cyclopropanesulfonyl-3-methyl-13-oxa-3,15-diaza-tricyclo[14.3.1.1^6,10]henicosa-1(19),6(21),7,9,16(20),17-hexaene-4,14-dione trifluoroacetic acid salt+Enantiomer] | 188 |
| CN1Cc2cc(ccc2S(=O)(=O)C2CC2)NC(=O)OCC2(CC2)c2cccc(c2)C(Nc2ccc3c(N)nccc3c2)C1=O (centres unmarked) [Example 5, trifluoroacetic acid salt] | 950 |
| COc1ccc2cc1COCC(=O)Nc1ccc(S(=O)(=O)C3CC3)c(c1)CN(C)C(=O)[C@@H]2Nc1ccc2c(N)nccc2c1 [Example 9, (R)-5-(1-Amino-isoquinolin-6-ylamino)-19-cyclopropanesulfonyl-9-methoxy-3-methyl-12-oxa-3,15-diaza-tricyclo[14.3.1.1^6,10]henicosa-1(19),6(21),7,9,16(20),17-hexaene-4,14-dione trifluoroacetic acid salt+Enantiomer] | 23 |
| CN1Cc2cc(ccc2S(=O)(=O)C2CC2)NC(=O)COc2cccc(c2)[C@@H](Nc2ccc3c(N)nccc3c2)C1=O [Example 10, (R)-14-(1-Amino-isoquinolin-6-ylamino)-9-cyclopropanesulfonyl-12-methyl-2-oxa-5,12-diaza-tricyclo[13.3.1.1^6,10]icosa-1(18),6(20),7,9,15 (19),16-hexaene-4,13-dione trifluoroacetic acid salt+Enantiomer] | 714 |
| CN1CCc2cc(ccc2OCc2ccccc2)C(Nc2ccc3c(N)ncc(F)c3c2)C(=O)N(C)Cc2cc(ccc2S(=O)(=O)C2CC2)NC1=O (centres unmarked) [Example 19, 5-(1-Amino-4-fluoro-isoquinolin-6-ylamino)-9-benzyloxy-19-cyclopropanesulfonyl-3,13-dimethyl-3,13,15-triaza-tricyclo[14.3.1.1^6,10]henicosa-1(19),6(21),7,9,16(20),17-hexaene-4,14-dione, trifluoroacetic acid salt] | 115 |
| CN1Cc2cc(ccc2S(=O)(=O)C2CC2)NC(=O)CCc2cc(ccc2OCC(F)F)[C@@H](Nc2ccc3c(N)ncc(F)c3c2)C1=O [Example 21, (R)-11-(1-Amino-4-fluoro-isoquinolin-6-ylamino)-16-cyclopropane sulfonyl-7-(2,2-difluoro-ethoxy)-13-methyl-2,13-diaza-tricyclo[13.3.1.1^6,10]icosa-1(19),6,8,10(20),15,17-hexaene-3,12-dione trifluroracetic acid salt] | 5 |
| CN1Cc2cc(ccc2S(=O)(=O)C2CC2)NC(=O)CCc2cc(ccc2OCC2CC2)[C@@H](Nc2ccc3c(N)ncc(F)c3c2)C1=O [Example 22, (R)-11-(1-Amino-4-fluoro-isoquinolin-6-ylamino)-16-cyclopropane sulfonyl-7-cyclopropylmethoxy-13-methyl-2,13-diaza-tricyclo[13.3.1.1^6,10]icosa-1(19),6,8,10(20),15,17-hexaene-3,12-dione trifluroracetic acid salt] | 5 |
